From patent US11491091B2, “Cooling product” (SYMRISE AG, priority 2010, dated 2022)

System: skin of test persons
Assay: Cooling effect on the skin as perceived by test persons (panel test)
Type: in vivo
Settings: in each formulation the proportion of 1,2-pentanediol replaced with 1,2-hexanediol at a ratio of 5:3
From the text: In case of doubt, the perceptibility of the cooling effect is to be determined by means of a panel test wherein the corresponding mixture is applied onto the skin of at least 10 test persons. If in the course of this, preferably in combination with a blind test, 90% of the test persons confirm a cooling effect, then this will preferably correspond to the criteria for the presence of a corresponding effect. Topical applications in terms of the present text are applications where the corresponding active substance or the combination of active substances is brought into contact with the skin or with a mucous membrane. It is especially preferred that the evaluation of a cooling effect and its enhancement is made analog to the application example presented below. […] Provided the corresponding formulations also contained trans-4-tert. butylcyclohexanol, the cooling effect was even further enhanced compared to formulations without this compound.

With `CCCCC(O)CO` (stereo not shown) [1,2-hexanediol] the “cooling effect enhancement after replacement of 1,2-pentanediol” value was “comparable effects are achieved”.
